Data: US6562855B1, “Anaesthetic formulation comprising an NMDA-antagoinst and an alpha-2 adrenergic agonist” (priority 1999, dated 2003)
“Also recorded” adds a separate entry of the source.

What was measured:
[1] = system: Male Sprague-Dawley rats; test: Loss of righting reflex (sleep-time), hypnotic response to dexmedetomidine; assay type: in vivo, rat; details: for effect of co-administration on development of tolerance to the hypnotic effect of dexmedetomidine: MK-801 100 and 400 μg/kg/hr co-administered with dexmedetomidine, challenge 100 μg/kg i.p., pumps removed 1 day prior to testing (FIG. 2C); for effect of co-administration on induction of tolerance to the hypnotic effect of dexmedetomidine: NO2-arginine 0.4-4 μg/kg/hr with dexmedetomidine 5 μg/kg/hr for 7 days (FIG. 5C)
Description: (§1) The experimental protocol was approved by the Animal Care and Use Committee of the Veterans Affairs Palo Alto Health Care System. Male Sprague-Dawley rats, (B&K, Fremont, Calif.) weighing 250-350 g were used. The rats were stratified to match the distribution of the weights in the groups as closely as possible. All tests were performed between 10 a.m. and 4 p.m. The number of animals for each experiment is listed in the legends.
(§2) Rats were made tolerant to the anesthetic action of an alpha-2 agonist, dexmedetomidine, as described by Reid K et al (ibid). Briefly, rats were administered dexmedetomidine chronically using Alzet® osmotic minipumps (Model 2002 or 1007D, Alza, Palo Alto Calif.), which discharge their contents at a mean pumping rate of 0.48±0.02 μl/h. The pumps were inserted subcutaneously during isoflurane anesthesia in the dorsal thoracic region and loaded to deliver 5 μg/kg/h for 7 days to induce hypnotic tolerance and 10 μg/kg/h for 14 days to induce analgesic tolerance. […] When MK-801 or Nω-nitro-L-arginine (NO2-arginine) was co-administered with dexmedetomidine the MK-801 was included in the same pump. […] For the MK-801 and Nω-nitro-L-arginine (NO2-arginine) hypnotic experiments the pumps were removed one day prior to behavioral testing. In all other experiments the pumps were not removed prior to testing.
Hypnotic response to dexmedetomidine, was defined by the loss of the rat's righting reflex (LORR), and its duration was measured in minutes and referred to as sleep-time. The duration of the LORR was assessed as the time from the rat's inability to right itself when placed on its back until the time that it spontaneously reverted, completely, to the prone position. The hypnotic response test was performed between 10 a.m. and 6 p.m. as described in Reid et al, 1994.
(§3) The NOS inhibitor Nω-nitro-L-arginine (NO2-arginine) (Sigma) and the NMDA antagonists MK-801 (RBI) and ketamine (Sigma) were diluted in normal saline and acutely administered intraperitoneally or administered chronically by means of Alzet® osmotic minipumps (Model 2002 or 1007D, Alza, Palo Alto Calif.). These compounds were co-administered with dexmedetomidine by including both drugs in one pump.
(§4) LORR and tail flick data was analyzed using the analysis of variance (ANOVA) followed by post hoc Bonferroni tests or Dunnett's multiple comparison test or t-test where appropriate.

[2] = system: Male Sprague-Dawley rats; test: Tail flick response to a noxious thermal stimulus (analgesic action of dexmedetomidine); assay type: in vivo, rat; details: for effect of acute administration on the analgesic action of dexmedetomidine: tail flick 40 min later
Description: as §1, §2
Nociceptive response was assessed by the tail flick response to a noxious thermal stimulus 40 minutes after the administration of the dexmedetomidine challenge dose. A high intensity light beam focused on the tail and the time for the rat to move its tail out of the light was recorded as tail flick latency. This method has been described previously in the literature (Guo T Z et al, ibid). The latencies from three sites on the tail were averaged. A cut-off time of 10 sec was predetermined to prevent tissue damage. Baseline measurements consist of a set of three tail flick determinations at 2 min intervals.
as §3, §4

[3] = system: Male Sprague-Dawley rats; details: previously demonstrated (Guo T Z et al); cited from earlier work
[4] = 20° C. and normal pressure; cited from earlier work
[5] = system: NMDA receptor; details: 80% xenon; cultured hippocampal neurons; cited from earlier work
[6] = chronic exposure to dexmedetomidine for 14 days (10 μg/kg/h) (FIG. 1B)

C[C@]12N[C@H](Cc3ccccc31)c1ccccc12 [MK-801]
effect on dexmedetomidine-induced sleep time ([1]; MK-801 50 μg/kg acute): has no effect on dexmedetomidine-induced sleep time
effect of acute administration on dexmedetomidine-induced sleep time ([1]; MK-801 10-200 μg/kg, naïve animals, dexmedetomidine 100 μg/kg i.p. (FIG. 2A)): did not affect sleep time
effect of co-administration on development of tolerance to the hypnotic effect of dexmedetomidine [1]: blocks tolerance; also recorded: able to prevent the development of tolerance
effect of co-administration on development of tolerance to the hypnotic effect of dexmedetomidine ([1]; listed as dizolcipine): blocked
effect of acute administration on expression of tolerance to the hypnotic effect of dexmedetomidine ([1]; MK-801 acute, rats already tolerant (dexmedetomidine 5 μg/kg/h, 7 days) (FIG. 2B)): does not block dexmedetomidine-induced tolerance; also recorded: did not affect the expression of tolerance
effect of acute administration on expression of tolerance to the hypnotic effect of dexmedetomidine ([1]; MK-801 acute, rats already tolerant (dexmedetomidine 5 μg/kg/h, 7 days) (FIG. 2B), listed as dizolcipine): does not prevent the expression of tolerance
effect of acute low dose on expression of tolerance to the analgesic effect of dexmedetomidine ([2]; MK-801 50 μg/kg acute, rats tolerant after dexmedetomidine 10 μg/kg/hr for 14 days (FIG. 4B)): does not prevent the expression of tolerance; also recorded: did not reverse the expression of tolerance
effect of higher dose on the analgesic action of dexmedetomidine ([2]; MK-801 400 μg/kg acute, control animals): antagonized the analgesic action of dexmedetomidine
effect of acute higher dose on tolerance to the analgesic effect of dexmedetomidine ([2]; MK-801 400 μg/kg acute, tolerant animals): unable to reverse tolerance
effect of acute administration on the analgesic action of dexmedetomidine ([2]; MK-801 15 min before dexmedetomidine 50 μg/kg, naive rats (FIG. 4A)): suppressed its analgesic action at the two highest doses
effect of co-administration on development of analgesic tolerance to dexmedetomidine ([2]; MK-801 (0.4 μg/kg/hr as printed; maximum dose tolerated by the rat) with dexmedetomidine 10 μg/kg/hr for 14 days (FIG. 4C)): does not prevent the development of tolerance; also recorded: had no effect on the development of analgesic tolerance
effect of low dose on dexmedetomidine-induced analgesia ([2]; low dose of MK-801 (50 μg/kg) acute, control animals (FIG. 4B)): did not have any affect on dexmedetomidine-induced analgesia
effect on tail flick latency / dexmedetomidine's analgesic action when administered alone ([2]; same chronic dose of MK-801 alone (FIG. 4C)): does not affect dexmedetomidine's analgesic action; also recorded: had no effect on tail flick latency

N=C(NCCC[C@H](N)C(=O)O)N[N+](=O)[O-] [NO2-arginine, Nω-nitro-L-arginine]
effect of co-administration on induction of tolerance to the hypnotic effect of dexmedetomidine [1]: dose-dependently blocks the development of tolerance; also recorded: attenuated
effect of co-administration on induction of tolerance to the hypnotic effect of dexmedetomidine ([1]; listed as NO2-Arginine): blocked
effect of acute administration on dexmedetomidine-induced sleep time ([1]; NO2-arginine 15 min prior to dexmedetomidine 100 μg/kg i.p., drug naive rats (FIG. 5A)): dependently increases the dexmedetomidine-induced sleep time; also recorded: increased sleep time only at high doses
effect of acute administration on expression of tolerance to the hypnotic effect of dexmedetomidine ([1]; low doses of NO2-arginine acute, after 7-day dexmedetomidine, challenge 100 μg/kg (FIG. 5B)): does not reverse the tolerance; also recorded: did not reverse its expression
effect of acute administration on expression of tolerance to the hypnotic effect of dexmedetomidine ([1]; low doses of NO2-arginine acute, after 7-day dexmedetomidine, challenge 100 μg/kg (FIG. 5B), listed as NO2-Arginine): does not prevent the expression of tolerance
effect on dexmedetomidine-induced sleep time when given alone ([1]; treatment with just NO2-arginine 1.25 μg/kg/hr (FIG. 5C, last column)): does not affect the dexmedetomidine-induced sleep time; also recorded: did not affect the dexmedetomidine sleep time
effect on dexmedetomidine-induced analgesia in control animals ([2]; NO2-arginine 4 μg/kg/hr (FIG. 6C)): had no effect on dexmedetomidine-induced analgesia in control animals
effect on tail flick latency when administered alone ([2]; NO2-arginine 4 μg/kg/hr alone (data not shown)): had no effect on tail flick latency
effect of co-administration on analgesic tolerance to dexmedetomidine ([2]; NO2-arginine 4 μg/kg/hr with dexmedetomidine 10 μg/kg/hr for 14 days (FIG. 6C)): has no effect on analgesic tolerance; also recorded: had no effect on analgesic tolerance
effect of co-administration on analgesic tolerance to dexmedetomidine ([2]; NO2-arginine 8 μg/kg/hr with dexmedetomidine 10 μg/kg/hr for 14 days (FIG. 6C)): also ineffective; also recorded: ineffective at reversing tolerance
effect of acute administration on expression of tolerance to the analgesic action of dexmedetomidine ([2]; NO2-arginine 1 and 20 mg/kg i.p., dexmedetomidine 100 μg/kg i.p., tolerant rats (FIG. 6B)): does not reverse dexmedetomidine tolerance; also recorded: did not reverse the expression of tolerance
effect of acute administration on the analgesic action of dexmedetomidine ([2]; NO2-arginine i.p. 15 min prior to dexmedetomidine 50 μg/kg i.p., naïve rats (FIG. 6A)): has no effect on the analgesic action of dexmedetomidine; also recorded: did not affect the analgesic action of dexmedetomidine

Cc1cccc([C@H](C)c2cnc[nH]2)c1C [dexmedetomidine]
hypnotic effect of dexmedetomidine (duration of loss of righting reflex), dose response ([1]; rats chronically treated with dexmedetomidine 5 μg/kg/h for 7 days, even when large doses were given (FIG. 1A)): almost completely absent
hypnotic effect of dexmedetomidine (duration of loss of righting reflex), dose response ([1]; sham treated animals, challenge doses (FIG. 1A)): dose dependently increased
dose of maximal efficacy of hypnotic action (biphasic dose response curve) [3]: around 300 μg/kg
maximal analgesic effect of dexmedetomidine [2, 6]: reduced the maximal effect
shift of the analgesic dose response curve for dexmedetomidine [2, 6]: about 2 fold

[Xe] [xenon]
concentration of xenon dissolved or dispersed in lipid emulsion [4]: 0.2 to 10 ml per ml of emulsion
reduction of NMDA-activated currents [5]: up to 60%

CNC1(c2ccccc2Cl)CCCCC1=O (stereo not shown) [ketamine]
effect on dexmedetomidine sedation when administered alone ([1]; ketamine 400 μg/kg/hr alone (FIG. 3C)): without having an effect on dexmedetomidine sedation; also recorded: had no effect by itself
effect of co-administration on tolerance to the hypnotic (sedative) effect of dexmedetomidine ([1]; ketamine 400 μg/kg/hr concurrently with dexmedetomidine, challenge 150 μg/kg i.p., pumps left in place (FIG. 3C)): reverses tolerance; also recorded: did reverse tolerance
effect of acute administration on established tolerance to the hypnotic effect of dexmedetomidine ([1]; ketamine 10 or 20 mg/kg acute, tolerant rats (FIG. 3B)): does not block dexmedetomidine-induced tolerance; also recorded: could not reverse tolerance
effect of acute administration on dexmedetomidine-induced sleep time ([1]; ketamine acute, dexmedetomidine 150 μg/kg i.p. (FIG. 3A)): has no effect on the sleep time
effect of acute administration on dexmedetomidine-induced sleep time ([1]; ketamine acute, dexmedetomidine 150 μg/kg i.p. (FIG. 3A), listed as Ketamine): did not affect the sleep time
